Consider two compounds from US20070219214A1, “Dual NK2/NK3-antagonists, pharmaceutical compositions comprising them, and processes for their preparation” (Solvay pharmaceuticals GmbH, priority 2006, published 2007).

One assay deals with human NK1-receptor (Homo sapiens, UniProt P25103). Nature of the assay: Binding potency of the test substances to NK1-receptors in vitro ([3H]-Substance P displacement). Conditions: human NK1-receptor in CHO cell membranes, average of at least three measurements, read-out: pKi, binding potency to NK1-receptors (converted).
In another assay the target is T1, NK1-receptor (Cavia porcellus, UniProt P30547).
T1 construct: from tissue; host or cells: whole animal (Pirbright-White guinea pigs), in vivo
Nature of the assay: Functional NK1-receptor antagonism in aortic ring preparations isolated from guinea pigs. The settings on record: Substance P-induced relaxation. The protocol: 5. Determination of Functional NK1-Receptor Antagonism of Test Compounds in Tissue Isolated from Guinea Pigs.
The NK1-antagonistic action of test compounds was tested in aortic ring preparations isolated from guinea pigs. The preparations were kept in an oxygenated nutrient solution kept at 37° C. For measuring contraction of the circular vascular muscle, the preparations were fixed to a hook and connected to force displacement transducers. Contractions/relaxations were recorded on a pen recorder. The preparations were given a medium tonus by addition of phenylephrine.
Before (predrug) and after the administration of the test compound such relaxations were measured and quantified in percent of the predrug relaxation. 2-3 concentrations of the test compound were applied showing the inhibition of the receptor stimulation concentration dependently. The concentration of half-maximal inhibition (IC50) and its negative logarithm pIC50=−log(IC50) was calculated. The pIC50 value indicates the inhibitory potency of the test compounds to the NK1-receptor.

Chain of human NK1-receptor (P25103 whole entry): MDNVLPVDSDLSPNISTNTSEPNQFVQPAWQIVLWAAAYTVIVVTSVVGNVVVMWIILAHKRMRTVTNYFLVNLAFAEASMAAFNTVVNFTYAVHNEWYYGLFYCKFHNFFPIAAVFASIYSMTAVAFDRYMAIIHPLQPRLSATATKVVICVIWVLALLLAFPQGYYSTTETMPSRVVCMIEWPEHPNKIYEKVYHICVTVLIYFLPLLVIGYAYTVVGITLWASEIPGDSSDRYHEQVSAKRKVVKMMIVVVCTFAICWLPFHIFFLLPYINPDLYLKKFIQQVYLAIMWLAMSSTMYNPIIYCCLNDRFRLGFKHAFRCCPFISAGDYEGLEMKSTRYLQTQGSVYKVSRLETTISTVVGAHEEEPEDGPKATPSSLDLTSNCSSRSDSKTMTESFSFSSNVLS
T1 sequence (P30547 whole entry): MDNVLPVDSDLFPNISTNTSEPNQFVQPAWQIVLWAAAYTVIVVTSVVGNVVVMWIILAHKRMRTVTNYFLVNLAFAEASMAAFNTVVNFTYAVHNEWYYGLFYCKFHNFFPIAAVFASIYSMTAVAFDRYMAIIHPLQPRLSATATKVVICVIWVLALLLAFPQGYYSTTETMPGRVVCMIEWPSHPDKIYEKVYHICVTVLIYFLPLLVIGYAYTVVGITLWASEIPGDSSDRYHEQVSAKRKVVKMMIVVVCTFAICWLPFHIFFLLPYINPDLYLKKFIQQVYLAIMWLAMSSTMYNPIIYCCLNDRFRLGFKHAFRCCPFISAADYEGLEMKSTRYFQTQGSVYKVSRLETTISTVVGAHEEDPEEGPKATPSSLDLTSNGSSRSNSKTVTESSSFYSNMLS

Take `CN(C)C(=O)C1(N2CCCCC2)CCN(CC[C@H](CN(C)C(=O)c2ccccc2)c2ccc(Cl)c(Cl)c2)CC1` [compound 1]: the Ki at human NK1-receptor is 79.4 nM.

For the compound `CN(C)C(=O)C1(N2CCCCC2)CCN(CC[C@H](CN(C)C(=O)c2cc(C#N)c3ccccc3c2)c2ccc(Cl)c(Cl)c2)CC1` [compound 11], the “pIC50, functional NK1-antagonism on isolated guinea pig tissue” value against NK1-receptor amounted to 8.26.
